From patent US20250051277A1, “DELIVERY OF THERAPEUTIC ALKALOID COMPOUNDS” (Sensorium Therapeutics, Inc., priority 2021, published 2025)
Like-named read-outs stand apart in the source and are kept apart here. Marks after values point to notes of the source that are not given here.

How the values were obtained:
[1] = 10 μM
Experimental: (§1) 50 μL aliquots of positive controls and test compounds spiked into rat or human plasma (n=2) were added to a pre-warmed plate (37° C.) and shaken at 50 rpm. At each respective time point, the reaction was stopped by adding 500 μL of acetonitrile containing internal standards (100 nM aprozolam, 200 nM caffeine, 100 nM tolbutamide). All samples were vortexed for 10 minutes, followed by centrifugation at 3,220 g for 30 minutes to precipitate proteins. 100 μL of the supernatant is transferred to a new plate. The supernatant will be diluted with ultrapure water according to the LC-MS signal response and peak shape.

[2] = 10 μM; remark: listed apart in the source
Experimental: as §1

[3] = format: physicochemical; settings: DI water, 25° C., 0.5 mM
[4] = format: physicochemical; settings: SGF with pepsin, pH 1.5, 37° C., 0.5 mM

Row | SMILES | Prodrug (%) remaining, Rat Plasma ([1]; 0 h) [%] | Prodrug (%) remaining, Rat Plasma ([1]; 10 min) [%] | Prodrug (%) remaining, Rat Plasma ([1]; 0.5 h) [%] | Prodrug (%) remaining, Rat Plasma ([1]; 1 h) [%] | Prodrug (%) remaining, Rat Plasma ([1]; 2 h) [%] | Prodrug (%) remaining, Rat Plasma ([1]; 4 h) [%] | Prodrug (%) remaining, Human Plasma ([2]; 0 h) [%] | Prodrug (%) remaining, Human Plasma ([2]; 10 min) [%] | Condition 2 Conversion (%) ([3]; time 1 min) | Condition 2 Conversion (%) ([3]; time 5 min) | Condition 2 Conversion (%) ([3]; time 30 min) | Condition 2 Conversion (%) ([3]; time 1 h) | Condition 2 Conversion (%) ([3]; time 4 h) | Condition 2 Conversion (%) ([3]; time 24 h) | Condition 1 Conversion (%) ([4]; time 1 min) | Condition 1 Conversion (%) ([4]; time 5 min) | Condition 1 Conversion (%) ([4]; time 30 min) | Condition 1 Conversion (%) ([4]; time 1 h) | Condition 1 Conversion (%) ([4]; time 4 h) | Condition 1 Conversion (%) ([4]; time 24 h) | also measured
1 | CCCC(C)(C)C(=O)OC1=C[C@@H]2N(C)CC[C@]2(c2ccc(OC)c(OC)c2)CC1 [Compound 429, (3aS,7aS)-3a-(3,4-dimethoxyphenyl)-1-methyl-2,3,3a,4,5,7a-hexahydro-1H-indol-6-yl2,2-dimethylpentanoate] | 100.0 | 90.4 | 83.9 | 71.9 | 50.8 | 26.2 | 100.0 | >99 | – | – | – | – | – | – | – | – | – | – | – | – | Prodrug (%) remaining, Human Plasma ([2]; 0.5 h): 96.3%; Prodrug (%) remaining, Human Plasma ([2]; 1 h): 95.3%; Prodrug (%) remaining, Human Plasma ([2]; 2 h): 91.8%; Prodrug (%) remaining, Human Plasma ([2]; 4 h): 84.6%
2 | CCCCCC(C)C(=O)OC1=C[C@@H]2N(C)CC[C@]2(c2ccc(OC)c(OC)c2)CC1 (stereo partly drawn) [Compound 400, (3aS,7aS)-3a-(3,4-dimethoxyphenyl)-1-methyl-2,3,3a,4,5,7a-hexahydro-1H-indol-6-yl2-methylheptanoate] | 100.0 | 12.6 | 0.6 | 0.1 | 0.1 | 0.0 | 100.0 | 34.7 | – | – | – | – | – | – | – | – | – | – | – | – | Prodrug (%) remaining, Human Plasma ([2]; 0.5 h): 11.6%; Prodrug (%) remaining, Human Plasma ([2]; 1 h): 5.2%; Prodrug (%) remaining, Human Plasma ([2]; 2 h): 2.3%; Prodrug (%) remaining, Human Plasma ([2]; 4 h): 1.9%
3 | CCC(C)(CC)C(=O)OC1=C[C@@H]2N(C)CC[C@]2(c2ccc(OC)c(OC)c2)CC1 [Compound 430, (3aS,7aS)-3a-(3,4-dimethoxyphenyl)-1-methyl-2,3,3a,4,5,7a-hexahydro-1H-indol-6-yl2-ethyl-2-methylbutanoate] | 100.0 | 98.2 | 98.3 | 97.1 | 94.1 | 92.8 | 100.0 | >99 | – | – | – | – | – | – | – | – | – | – | – | – | Prodrug (%) remaining, Human Plasma ([2]; 0.5 h): >99%; Prodrug (%) remaining, Human Plasma ([2]; 1 h): >99%; Prodrug (%) remaining, Human Plasma ([2]; 2 h): >99%; Prodrug (%) remaining, Human Plasma ([2]; 4 h): 95.9%
4 | CCC(CC)C(=O)OC1=C[C@@H]2N(C)CC[C@]2(c2ccc(OC)c(OC)c2)CC1 [Compound 426, (3aS,7aS)-3a-(3,4-dimethoxyphenyl)-1-methyl-2,3,3a,4,5,7a-hexahydro-1H-indol-6-yl2-ethylbutanoate] | 100.0 | 70.2 | 33.2 | 9.5 | 0.9 | 0.1 | 100.0 | 87.1 | – | – | – | – | – | – | – | – | – | – | – | – | Prodrug (%) remaining, Human Plasma ([2]; 0.5 h): 80.3%; Prodrug (%) remaining, Human Plasma ([2]; 1 h): 79.2%; Prodrug (%) remaining, Human Plasma ([2]; 2 h): 73.6%; Prodrug (%) remaining, Human Plasma ([2]; 4 h): 66.4%
5 | COc1ccc([C@@]23CCC(=NNCc4ccccn4)C[C@@H]2N(C)CC3)cc1OC [Compound 369, (3aS,7aS)-3a-(3,4-dimethoxyphenyl)-1-methyl-6-(2-(pyridin-2-ylmethyl)hydrazineylidene)octahydro-1H-indole] | – | – | – | – | – | – | – | – | 0% | 0% | 0 | 0 | 45 | 50 | 30 | 100 | 100 | 100 | 100 | 100 | –
6 | COc1ccc([C@@]23CCC(=NNC(=O)c4ccc(Cl)cc4)C[C@@H]2N(C)CC3)cc1OC [Compound 240, N-[[(3aS,7aS)-3a-(3,4-dimethoxyphenyl)-1-methyl-2,3,4,5,7,7a-hexahydroindol-6-ylidene]amino]-4-chloro-benzamide] | – | – | – | – | – | – | – | – | 35.7% | 30% | 40.5 | 43.3 | 54.2 | 100 | 84 | 100 | 100 | 100 | 100 | 100 | –
7 | COc1ccc([C@@]23CCC(=NNC(=O)CC[C@H](NC(=O)c4ccc(NCc5cnc6nc(N)nc(O)c6n5)cc4)C(=O)O)C[C@@H]2N(C)CC3)cc1OC [Compound 172, (2S)-5-[2-[(3aS,7aS)-3a-(3,4-dimethoxyphenyl)-1-methyl-2,3,4,5,7,7a-hexahydroindol-6-ylidene]hydrazino]-2-[[4-[(2-amino-4-hydroxy-pteridin-6-yl)methylamino]benzoyl]amino]-5-oxo-pentanoic acid] | – | – | – | – | – | – | – | – | 50* % | 70* % | 100 | 100 | 100 | 100 | 100 | 100 | 100 | 100 | 100 | 100 | –
8 | COc1ccc([C@@]23CCC(=NOC(C)(C)C)C[C@@H]2N(C)CC3)cc1OC [Compound 199, (3aS)-N-tert-butoxy-3a-(3,4-dimethoxyphenyl)-1-methyl-2,3,4,5,7,7a-hexahydroindol-6-imine] | – | – | – | – | – | – | – | – | 0% | 0% | 0 | 0 | 0 | 0 | 0 | 0 | 0 | 4.2 | 23.6 | 27.3 | –
9 | COc1ccc([C@@]23CC/C(=N\NC(=O)NC[C@H]4CC[C@H](C(=O)O)CC4)C[C@@H]2N(C)CC3)cc1OC [Compound 258, 4-[[[[(3aS,7aS)-3a-(3,4-dimethoxyphenyl)-1-methyl-2,3,4,5,7,7a-hexahydroindol-6-ylidene]amino]carbamoylamino]methyl]cyclohexanecarboxylicacid] | – | – | – | – | – | – | – | – | 0% | 0% | 0 | 0 | 0 | 0 | 0 | 0 | 42.82 | 100 | 100 | 100 | –
10 | COc1ccc([C@@]23CCC(=NNc4ccc(F)cc4)C[C@@H]2N(C)CC3)cc1OC [Compound 361, (3aS,7aS)-3a-(3,4-dimethoxyphenyl)-6-(2-(4-fluorophenyl)-hydrazineylidene)-1-methyloctahydro-1H-indole] | – | – | – | – | – | – | – | – | 0% | 0% | 0 | 0 | 45 | 100 | 10 | 100 | 100 | 100 | 100 | 100 | –
11 | COc1ccc([C@@]23CCC(=NNC(=O)Nc4cccc(O)c4)C[C@@H]2N(C)CC3)cc1OC [Compound 251, 2-[(3aS,7aS)-3a-(3,4-dimethoxyphenyl)-1-methyloctahydro-6H-indol-6-ylidene)-N-(3-hydroxyphenyl)hydrazine-1-carboxamide] | – | – | – | – | – | – | – | – | 0% | 0% | 0 | 0 | 0 | 15.18 | 6.91 | 100 | 100 | 100 | 100 | 100 | –
12 | COc1ccc([C@@]23CCC(=NNc4ccc(C(=O)O)cc4)C[C@@H]2N(C)CC3)cc1OC [Compound 363, 4-[2-[(3aS,7aS)-3a-(3,4-dimethoxyphenyl)-1-methyl-2,3,4,5,7,7a-hexahydroindol-6-ylidene]hydrazino]benzoic acid] | – | – | – | – | – | – | – | – | 0% | 0% | 0 | 0 | 0 | 8.1 | 0 | 0 | 0 | 2.1 | 27.1 | 46.7 | –
